Values of other authors, collected in patent US20230131493A1, “METHODS OF TREATING AGITATION ASSOCIATED WITH ALZHEIMER'S DISEASE” (Avanir Phrmaceuticals Inc., priority 2021, published 2023).
Structures can show the parent of a compound that is named as a salt.

Experiments:
[1] = a P-glycoprotein substrate
[2] = target: sigma-1 receptor (Homo sapiens, UniProt Q99720)
Sequence of sigma-1 receptor (Q99720 whole entry, species assumed): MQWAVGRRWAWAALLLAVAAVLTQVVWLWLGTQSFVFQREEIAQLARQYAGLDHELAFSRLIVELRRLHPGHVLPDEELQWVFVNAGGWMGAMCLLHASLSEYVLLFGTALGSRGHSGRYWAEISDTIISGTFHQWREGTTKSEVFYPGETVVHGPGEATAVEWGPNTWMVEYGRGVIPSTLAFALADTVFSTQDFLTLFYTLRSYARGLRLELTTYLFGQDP

| SMILES | serum digoxin levels on concomitant administration with digoxin [1] | receptor binding [2] |
| --- | --- | --- |
| C=C[C@H]1CN2CC[C@H]1C[C@@H]2[C@@H](O)c1ccnc2ccc(OC)cc12.C=C[C@H]1CN2CC[C@H]1C[C@@H]2[C@@H](O)c1ccnc2ccc(OC)cc12.O=S(=O)(O)O [Quinidine, quinidine sulfate] | may be as much as doubled |  |
| [2H]C([2H])([2H])Oc1ccc2c(c1)[C@]13CCCC[C@@H]1[C@H](C2)N(C([2H])([2H])[2H])CC3 [d6-DM, deuterated [d6]-dextromethorphan hydrobromide] |  | binds to the sigma-1 receptor |
